The text below walks through data of publication PMC9460261, “Need for a Standardized Translational Drug Development Platform: Lessons Learned from the Repurposing of Drugs for COVID-19” (Microorganisms, 2022).

Data set [1] has as its system SARS-CoV-2. The conditions noted are these: cited from earlier work; for pEC50: read-out: SARS-CoV-2 EC50.
For data set [2], the system named is SARS-CoV-2. It counts as in vivo, Syrian hamster. The conditions noted are these: doses, frequency, duration as in Table 1.
Data set [3] deals with SARS-CoV-2 in Calu-3 cells. The conditions noted are these: for pIC50: read-out: Calu-3 cells Average IC50, * one replicate only.
Data set [4] relates to SARS-CoV-2 in Vero cells. The conditions noted are these: for pIC50: * one replicate only.
The subject of data set [5] is SARS-CoV-2 in Vero cells. Kind of data set: microbe, parasite or virus in culture. The conditions noted are these: Severe acute respiratory syndrome coronavirus 2, Vero.
For data set [6], the system named is SARS-CoV-2 in Calu-3 cells. Nature of the data set: microbe, parasite or virus in culture. The conditions noted are these: Severe acute respiratory syndrome coronavirus 2, Calu-3, read-out: Calu-3 cells Average IC50.
The nature of data set [7]: Population PK model from satellite PK studies in hamster.
The nature of data set [8]: in vitro. The conditions noted are these: African green monkey, Selectivity Index (Vero cells).
The conditions of data set [9]: female, LGV Golden Syrian, hamster, in vivo.
Setting [10] is: read-out: VERO cells Average IC50, With Pgp pump inhibitor, 2 μM CP-100356, * one replicate only.
Setting [11] is: read-out: VERO cells Average IC50, Without Pgp pump inhibitor, * one replicate only.
Setting [12] is: read-out: VERO cells Average IC50, Without Pgp pump inhibitor.
The mark [13] stands for this setting: hamster of the study's median weight (80-131 g).
The mark [14] stands for this setting: read-out: VERO cells Average IC50, With Pgp pump inhibitor, 2 μM CP-100356.

pEC50, pIC50: −log10 of the molar value. Counter-ions that a name gives are not always drawn. Like-named read-outs stand apart in the source and are kept apart here.

On to `Cc1c(-c2ccc(-c3ccccc3F)cc2)nc2ccc(F)cc2c1C(=O)O` [Brequinar, brequinar], for which the pEC50 (as a rule, the EC50 on a negative log10 scale, so that one unit is a factor of ten) is 7.30 in [1] (host cell A549-ACE); less than 4.30 in [1] (host cell Caco-2); 6.30 in data set [1] (host cell Huh7.5); 6.92 in data set [1] (host cell Vero E6, ref 51).
For `CN(Cc1cc(Br)cc(Br)c1N)C1CCCCC1` [Bromhexine, bromhexine], the pEC50 in [1] (host cell Vero E6, ref 47) was 4.66.
On to `CN(C)C(=O)COC(=O)Cc1ccc(OC(=O)c2ccc(NC(=N)N)cc2)cc1` [Camostat mesylate, camostat mesylate], for which, in data set [2], the “Activity in SARS-CoV-2 Hamster Model” value is “No”. Further, the pEC50 in [1] (host cell Calu-3) was 7.08. Further, in data set [3], the “Activity In Vitro; Potency EC50 or IC50 < 10 µM; Calu-3 Cells” value (from here on “Activity In Vitro … Calu-3 Cells”) is listed as “Yes (Potency EC50 or IC50 < 10 µM)”. Besides, the “Activity In Vitro; Potency EC50 or IC50 < 10 µM; Vero Cells” value (“Activity In Vitro … Vero Cells” for short) in [4] is “No (Potency EC50 or IC50 < 10 µM)”. Besides, the pIC50 – broadly, −log10 of the IC50, conventionally taken in molar units – in data set [5] (setting [10]) was less than 4.30; in data set [5] (setting [11]) it was less than 4.30; in data set [6], 5.52.
Regarding `COc1cc2c(c(OC)c1OC)-c1ccc(OC)c(=O)cc1[C@@H](NC(C)=O)CC2` [Colchicine, colchicine], the “Activity In Vitro … Calu-3 Cells” value in data set [3] is recorded as “Yes (Potency EC50 or IC50 < 10 µM)”. The “Activity In Vitro … Vero Cells” value in data set [4] is on record as “Yes (Potency EC50 or IC50 < 10 µM)”. Also, the pIC50 in data set [5] (read-out: VERO cells Average IC50, With Pgp pump inhibitor) is 5.43; in data set [5] (setting [12]) it was 5.08.
`C[C@@]1(F)[C@H](O)[C@@H](CO)O[C@H]1n1ccc(=O)[nH]c1=O` [GS-331007]: in [7] (setting [13]), the “CL/F, elimination clearance, population estimate (%RSE)” value (shortened to “CL/F, elimination clearance … (%RSE)”) is given as 390 (17.4) mL/h and the “VC/F, central volume of distribution, population estimate (%RSE)” value (“VC/F, central volume … (%RSE)” below) is listed as 2750 (17.0) mL.
`OC(c1cc(C(F)(F)F)nc2c(C(F)(F)F)cccc12)C1CCCCN1` (centres unmarked) [Mefloquine, mefloquine]: the results for the selectivity ratio in data set [8] (With Pgp pump inhibitor) and in data set [8] (Without Pgp pump inhibitor) were 6.2 and 3.6, respectively. In addition, the “Activity In Vitro … Calu-3 Cells” value in data set [3] was “No (Potency EC50 or IC50 < 10 µM)”. Moreover, the “Activity In Vitro … Vero Cells” value in data set [4] is “Yes (Potency EC50 or IC50 < 10 µM)”. For the same compound, the pIC50 in data set [5] (setting [10]) is 5.55; in data set [5] (setting [11]), 5.24; in [6], 4.88.
On to `CCNCc1cc(Nc2ccnc3cc(Cl)ccc23)ccc1O` [N-desethylamodiaquine], for which, in data set [9], the “CL/F, elimination clearance … (%RSE)” value is 804 (9.48%) mL/h; the “Q/F (Q1/F), inter-compartment clearance, population estimate (%RSE)” value was 229 (27.6%) mL/h; the “VC/F, central volume … (%RSE)” value is on record as 1890 (42.2%) mL; the “VP/F, peripheral volume of distribution, population estimate (%RSE)” value is listed as 3050 (77.1%) mL.
With `CC(=O)Oc1ccccc1C(=O)Nc1ncc([N+](=O)[O-])s1` [Nitazoxanide, nitazoxanide], in data set [2], the “Activity in SARS-CoV-2 Hamster Model” value is reported as “No”. In addition, the selectivity ratio is greater than 14.7 in data set [8] (With Pgp pump inhibitor) and greater than 7.9 in [8] (Without Pgp pump inhibitor). The figures for the pIC50 in data set [5] (setting [10]), in data set [5] (setting [11]) and in data set [6] were 5.47, 5.20 and 4.87, respectively. Besides, the “CL/F, elimination clearance … (%RSE)” value in data set [9] was 626 (11.9) mL/h. Besides, in [9], the “VC/F, central volume … (%RSE)” value is listed as 188 (38.6) mL.
Turning to `CC(=O)CCCCn1c(=O)c2c(ncn2C)n(C)c1=O` [Pentoxyfilline, pentoxyfilline], the “Activity In Vitro … Calu-3 Cells” value in data set [3] was “No (Potency EC50 or IC50 < 10 µM)”. In addition, in data set [4], the “Activity In Vitro … Vero Cells” value was “No (Potency EC50 or IC50 < 10 µM)”. For the same compound, the negative logarithm of the IC50 (pIC50) in data set [5] (setting [10]), in [5] (setting [11]) and in data set [6] was less than 4.30 throughout.
With `CCCN(CCC)S(=O)(=O)c1ccc(C(=O)O)cc1` [Probenecid, probenecid], the pEC50 in [1] (host cell NHBE) was 8.89; in data set [1] (host cell Vero E6, ref 54), 6.12. Moreover, the “Activity In Vitro … Calu-3 Cells” value in data set [3] was “No (Potency EC50 or IC50 < 10 µM)”. In addition, the “Activity In Vitro … Vero Cells” value in [4] was “No (Potency EC50 or IC50 < 10 µM)”. Further, the negative logarithm of the IC50 (pIC50) in [5] (setting [10]), in [5] (setting [11]) and in data set [6] was less than 4.30 throughout.
Turning to `CC1(C)C(=O)N(c2ccc(C#N)c(C(F)(F)F)c2F)C(=S)N1c1ccc(CCCc2ncco2)nc1` [Proxalutamide, proxalutamide], the pEC50 in data set [1] (host cell LNCaP Cells) was 7.01. Moreover, in [3], the “Activity In Vitro … Calu-3 Cells” value is “No (Potency EC50 or IC50 < 10 µM)” and the pIC50 is 4.84. Moreover, the “Activity In Vitro … Vero Cells” value in [4] is “No (Potency EC50 or IC50 < 10 µM)”. In addition, in [4] (T: toxicity observed), the “Selectivity Index (Vero cells), With Pgp pump inhibitor” value is recorded as less than 2.3 and the “Selectivity Index (Vero cells), Without Pgp pump inhibitor” value was less than 1.6. The negative logarithm of the IC50 (pIC50) in [4] (setting [14]) was 4.67. In addition, in data set [4] (setting [12]), the negative logarithm of the IC50 (pIC50) is 4.52.
With `CC(C)c1nc(CN(C)C(=O)N[C@H](C(=O)N[C@@H](Cc2ccccc2)C[C@H](O)[C@H](Cc2ccccc2)NC(=O)OCc2cncs2)C(C)C)cs1` [Ritonavir, ritonavir], the pEC50 in [1] (host cell Vero E6, ref 31) was less than 4.00; in data set [1] (host cell Vero E6, ref 32), less than 4.30; in data set [1] (host cell VeroE6/TMPRSS2) it was 5.07.
As to `O=C(Nc1ncc([N+](=O)[O-])s1)c1ccccc1O` [Tizoxanide, tizoxanide], the selectivity ratio was greater than 21.7 in data set [8] (With Pgp pump inhibitor, T: toxicity observed) and greater than 7 in [8] (Without Pgp pump inhibitor, T: toxicity observed). Also, the pIC50 in data set [5] (setting [10]) is 5.64; in data set [5] (setting [11]), 5.14; in [6], 4.84.
Take `NCCC(Oc1ccc(C(F)(F)F)cc1)c1ccccc1` (centres unmarked) [norfluoxetine]: in data set [7] (hamster 97 g), the “FFP, fraction undergoing first-pass metabolism, population estimate (%RSE)” value is 0.323 (11). In [7] (setting [13]), the “CL/F, elimination clearance … (%RSE)” value is 93.3 (6.3) mL/h and the “VC/F, central volume … (%RSE)” value was 2740 (5.7) mL.
Regarding bemnifosbuvir, the “Activity in SARS-CoV-2 Hamster Model” value is listed as “No ^d” in data set [2] and “no activity” in [2] (listed as bemnifosbuvir (AT-527)). Besides, the EC90 – broadly, the concentration needed for an effect of 90% – in data set [1] (host cell HAE, AT-511, free base of AT-527 used) is 0.47 µM. In data set [3], the “Activity In Vitro … Calu-3 Cells” value was “No (Potency EC50 or IC50 < 10 µM)”. In addition, the pIC50 in data set [3] is less than 4.30; in data set [4] (setting [14]) it was less than 4.60; in data set [4] (setting [12]) it was less than 4.60. Also, the “Activity In Vitro … Vero Cells” value in data set [4] is recorded as “No (Potency EC50 or IC50 < 10 µM)”.
ivermectin: the “Activity in SARS-CoV-2 Hamster Model” value in [2] is reported as “No”. For the same compound, the pIC50 in data set [1] (Vero-hSLAM cells, read-out: IC50, medium) was 5.55; in [3], 5.05; in data set [4] (setting [14]), 5.96; in [4] (setting [12]), 5.37. Further, the pEC50 is 5.77 in [1] (host cell Vero E6, ref 22); 5.64 in data set [1] (host cell Vero E6, ref 38); 5.70 in data set [1] (host cell not given). Further, the “Effect of SC administration on F” value in [7] (compared to PO administration) is reported as 0.656 (15.7). In addition, the “Effect of SC administration on KA” value in data set [7] (compared to PO administration) is recorded as 2.05 (50.0). Besides, in data set [7] (compared to PO administration), the “Effect of SC administration on MTT” value was -0.85 (5.61). The “MTT, mean transit time, population estimate (%RSE)” value in data set [7] (hamster 120 g) is recorded as 0.478 (7.42) h. For the same compound, the “CL/F, elimination clearance … (%RSE)” value in data set [7] (setting [13]) is given as 13.3 (0.160) mL/h. The “KA, absorption rate constant, population estimate (%RSE)” value in [7] (setting [13]) is 0.531 (8.35) h-1. Also, the “Activity In Vitro … Calu-3 Cells” value in data set [3] was “Yes (Potency EC50 or IC50 < 10 µM)”. In addition, the “Activity In Vitro … Vero Cells” value in data set [4] is “Yes (Potency EC50 or IC50 < 10 µM)”.
